Measured values published in ChEMBL document CHEMBL1149672, “Synthesis of cryptolepine analogues as potential bioreducible anticancer agents” (Bioorg Med Chem, 2007).
Structures can show the parent of a compound that is named as a salt.

What was measured:
RT-112 [1] = test: Cytotoxicity against NQO2 expressing human RT112 cells by MTT assay; format: functional, cell-based
RT-112 [2] = test: Cytotoxicity against NQO2 expressing human RT112 cells in presence of NRH cofactor by MTT assay; format: functional, cell-based
[3] = target: NAD(P)H dehydrogenase [quinone] 1 (Homo sapiens) (UniProt P15559); test: Activity of recombinant human NQO1 assessed as specific activity
RT-112 [4] = test: Selectivity ratio of IC50 for RT112 cells in presence of cofactor NRH to IC50 for RT112 cells; format: functional, Homo sapiens
NCI-H460 = test: Cytotoxicity against high NQO1 protein expressing human H460 cells by MTT assay; format: functional, cell-based
BE [5] = test: Cytotoxicity against low NQO1 protein expressing human BE cells by MTT assay; format: functional, cell-based
BE [6] = test: Selectivity ratio of IC50 for human H460 cells IC50 for human BE cells; format: functional

Sequence of NAD(P)H dehydrogenase [quinone] 1 (Homo sapiens) (P15559 whole entry): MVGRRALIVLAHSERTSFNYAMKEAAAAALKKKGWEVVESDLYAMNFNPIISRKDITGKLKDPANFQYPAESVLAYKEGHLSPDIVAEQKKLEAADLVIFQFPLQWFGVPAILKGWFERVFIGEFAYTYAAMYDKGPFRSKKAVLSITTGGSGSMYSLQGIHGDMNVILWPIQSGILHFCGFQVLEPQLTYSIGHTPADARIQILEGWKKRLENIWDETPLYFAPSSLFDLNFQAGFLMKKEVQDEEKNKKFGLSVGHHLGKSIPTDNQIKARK

Q: Which results are given for `NC(=O)c1cc(N2CC2)c([N+](=O)[O-])cc1[N+](=O)[O-]` [TRETAZICAR]?
A: IC50 (RT-112 [1]): 88800 nM; IC50 (RT-112 [2]): 150 nM; Activity [3]: 3.56 µmol/min/mg; Ratio IC50 (RT-112 [4]): 586

Q: Which results are given for `Cn1c(/C=C/CO)c(CO)c2c1C(=O)C=C(N1CC1)C2=O` [APAZIQUONE]?
A: IC50 (NCI-H460): 5.9 nM; IC50 (BE [5]): 600 nM; Activity [3]: 79.8 µmol/min/mg; Ratio IC50 (BE [6]): 100

Q: With `C[n+]1c2ccccc2cc2[n-]c3ccccc3c21` [CRYPTOLEPINE HYDROCHLORIDE] as the compound, how does the IC50 (RT-112 [1]) read?
A: 820 nM

Q: And the IC50 (RT-112 [2])?
A: 800 nM

Q: And the IC50 (NCI-H460)?
A: 1450 nM

Q: What about the IC50 (BE [5]) of the same compound?
A: 1280 nM

Q: And the Activity [3]?
A: 4.53 µmol/min/mg

Q: Which results are given for `C[n+]1c2ccccc2cc2[n-]c3c([N+](=O)[O-])c(Cl)ccc3c21`?
A: IC50 (RT-112 [1]): 760 nM; IC50 (RT-112 [2]): 640 nM; IC50 (NCI-H460): 1880 nM; IC50 (BE [5]): 1480 nM; Activity [3]: 26.7 µmol/min/mg

Q: What does the source list for `C[n+]1c2ccc(Cl)cc2cc2[nH]c3ccc([N+](=O)[O-])cc3c21`?
A: IC50 (RT-112 [1]): 410 nM; IC50 (RT-112 [2]): 280 nM; IC50 (NCI-H460): 460 nM; IC50 (BE [5]): 950 nM; Activity [3]: 18.9 µmol/min/mg

Q: Which IC50 (RT-112 [1]) does the source give for `C[n+]1c2ccc(F)cc2cc2[n-]c3c([N+](=O)[O-])cc([N+](=O)[O-])cc3c21` here?
A: 450 nM

Q: What about the IC50 (RT-112 [2]) of the same compound?
A: 190 nM

Q: And the Activity [3]?
A: 2.96 µmol/min/mg

Q: For `C[n+]1c2ccccc2cc2[n-]c3cc(Cl)c([N+](=O)[O-])cc3c21`, which IC50 (RT-112 [1]) is on record?
A: 1030 nM

Q: And the IC50 (RT-112 [2])?
A: 1080 nM

Q: Which results are given for `C[n+]1c2ccccc2cc2[n-]c3cc([N+](=O)[O-])c(Br)cc3c21`?
A: IC50 (RT-112 [1]): 360 nM; IC50 (RT-112 [2]): 320 nM; IC50 (NCI-H460): 380 nM; IC50 (BE [5]): 580 nM; Activity [3]: 13.9 µmol/min/mg

Q: With `C[n+]1c2ccc(Cl)cc2cc2[n-]c3c([N+](=O)[O-])cccc3c21` as the compound, how does the IC50 (RT-112 [1]) read?
A: 880 nM

Q: What about the IC50 (RT-112 [2]) of the same compound?
A: 820 nM

Q: With `C[n+]1c2ccccc2cc2[n-]c3c([N+](=O)[O-])cc(Br)cc3c21` as the compound, how does the IC50 (RT-112 [1]) read?
A: 240 nM

Q: What about the IC50 (RT-112 [2]) of the same compound?
A: 150 nM

Q: And the IC50 (NCI-H460)?
A: 590 nM

Q: And the IC50 (BE [5])?
A: 780 nM

Q: What about the Activity [3] of the same compound?
A: 8.66 µmol/min/mg

Q: With `C[n+]1c2ccc(F)cc2cc2[n-]c3ccc([N+](=O)[O-])cc3c21` as the compound, how does the IC50 (RT-112 [1]) read?
A: 2130 nM

Q: What about the IC50 (RT-112 [2]) of the same compound?
A: 1670 nM

Q: For `C[n+]1c2ccc(F)cc2cc2[n-]c3c([N+](=O)[O-])cccc3c21`, which IC50 (RT-112 [1]) is on record?
A: 1350 nM

Q: And the IC50 (RT-112 [2])?
A: 1100 nM

Q: What about the Activity [3] of the same compound?
A: 2.72 µmol/min/mg

Q: Which results are given for `C[n+]1c2ccc(Cl)cc2cc2[n-]c3c([N+](=O)[O-])cc([N+](=O)[O-])cc3c21`?
A: IC50 (RT-112 [1]): 290 nM; IC50 (RT-112 [2]): 230 nM
